From US7863334B2, “Guanylhydrazone compounds, compositions, methods of making and using” (Cytokine PharmaSciences, Inc., priority 2004, dated 2011)

Columns and labels:
[1] = test system: TNFα release from LPS-induced RAW 264.7 cells; experiment: Inhibition of LPS-induced TNFα release from RAW 264.7 cells (ELISA); format: cell-based; settings: RAW 264.7 murine macrophage cells, 1 hour pretreatment, 100 ng/mL LPS, 24 hours
Procedure: (§1) The present inventors measured the ability of eight test articles to inhibit LPS-induced nitric oxide and TNFα secretion from murine macrophage cells.
(§2) The studies were conducted in RAW 264.7 cultures.
(§3) RAW 264.7 murine macrophage cells (ATCC, TIB-71) were maintained at 5% CO2, 37° C. in RPMI media (Fisher 15-040-CV, 1 mg/L glutathione) with 10% fetal bovine serum (fbs, Fisher, lot 05069F) plus 2 mM L-glutamine and penicillin/streptomycin. The cells were subcultured every two to three days. Cells were plated in tissue culture treated 96 well plates at a density of 1×10^5 cells/well and incubated at 5% CO2, 37° C. for at least one hour prior to initiation of the assay. The cells were washed with RPMI with 10% fbs prior to the initiation of the assay.
The compounds were weighed, dissolved in DMSO for stock solutions of 10 mg/mL and serially diluted in RPMI. The plated RAW 264.7 cells were pretreated in duplicate with the test compounds, control (CNI-1493) or vehicle for 1 hour at final concentrations of 0, 0.1, 1.0, 10, and 100 μg/mL. The cells were stimulated with 100 ng/mL LPS (E. coli 0111:B4) and incubated at 5% CO2, 37° C. for 24 hours. The media was collected and stored at −20° C.

[2] = test system: nitric oxide release from LPS-induced RAW 264.7 cells; experiment: Inhibition of LPS-induced nitric oxide (nitrite) release from RAW 264.7 cells (Griess reagent); format: cell-based; settings: RAW 264.7 murine macrophage cells, 1 hour pretreatment, 100 ng/mL LPS, 24 hours
Procedure: as §1, §2, §3
The compounds were weighed, dissolved in DMSO for stock solutions of 10 mg/mL and serially diluted in RPMI. The plated RAW 264.7 cells were pretreated in duplicate with the test compounds, control (CNI-1493) or vehicle for 1 hour at final concentrations of 0, 0.1, 1.0, 10, and 100 μg/mL. […]
To 50 μL of cell-free media, 50 μL of Griess Reagent (1 part 0.1% naphthylethylenediamine diHCl, 1 part 1.32% sulfanilimide in 60% acetic acid) was added and incubated for no more than 5 minutes at ambient temperature. The samples were read on a microtiter plate reader at 540 nm and compared to a 0.1-5 nmol nitrite standard curve.

## C/C(=N\N=C(N)N)c1cc(NC(=O)CCCCCCCCC(=O)Nc2cc(/C(C)=N/N=C(N)N)cc(/C(C)=N/N=C(N)N)c2)cc(/C(C)=N/N=C(N)N)c1.Cl.Cl.Cl.Cl [CNI-1493]
[1]
  IC50 for inhibition of release of TNFα: approximately 8 μg/mL
[2]
  IC50 for inhibition of nitric oxide release: approximately 5.5 μg/mL
